This note sets out measurements from ChEMBL document CHEMBL2029220, “Oxaphosphinanes: new therapeutic perspectives for glioblastoma” (J Med Chem, 2012).

The structures appear in SMILES notation. Active and inactive are the calls of the source. No cut-off for these calls is given here.

For one data set, the system named is SF-295. Kind of data set: Antiproliferative activity against human SF295 cells at 10 uM after 24 hrs by SRB assay. It is filed as functional, cell-based.
The subject of the next data set is SNB-75. Briefly: Antiproliferative activity against human SNB75 cells at 10 uM after 24 hrs by SRB assay. It is filed as functional, cell-based.
Data set [1] relates to C6. Kind of data set: Antiproliferative activity against rat C6 cells at 100 uM after 48 hrs by neutral red incorporation assay. The class given is functional, cell-based.
Data set [2] is described as follows: Cytotoxicity against mouse astrocytes assessed as decrease in cell viability at 1 to 100 uM after 48 hrs by neutral red incorporation assay. The class given is cell-based. The conditions noted are these: astrocyte.
Data set [3] can be described thus: Cytotoxicity against mouse astrocytes assessed as decrease in cell viability at 1 to 100 uM after 48 hrs by Hoechst 33342 staining. The class given is cell-based. The conditions noted are these: astrocyte.
Data set [4] is described as follows: Cytotoxicity against mouse astrocytes assessed as decrease in cell viability at 1 to 100 uM after 48 hrs by propidium iodide incorporation assay. The class given is cell-based. The conditions noted are these: astrocyte.
Data set [5] relates to C6. Kind of data set: Antiproliferative activity against rat C6 cells at 0.1 to 10 uM after 48 hrs by neutral red incorporation assay. The class given is functional, cell-based.
A short description of data set [6]: Cytotoxicity against mouse astrocytes assessed as decrease in cell viability at 10 uM after 48 hrs by neutral red incorporation assay. The class given is cell-based. The conditions noted are these: astrocyte.
A short description of data set [7]: Cytotoxicity against mouse astrocytes assessed as decrease in cell viability after 48 hrs by propidium iodide incorporation assay. The conditions noted are these: astrocyte. It is filed as cell-based.
A short description of data set [8]: Cytotoxicity against mouse astrocytes assessed as decrease in cell viability after 48 hrs by Hoechst 33342 staining. It is filed as cell-based. The conditions noted are these: astrocyte.
Data set [9] in a line: Cytotoxicity against mouse astrocytes assessed as decrease in cell viability at 1 to 10 uM after 48 hrs by neutral red incorporation assay. The class given is cell-based. The conditions noted are these: astrocyte.
The nature of data set [10]: Cytotoxicity against mouse astrocytes assessed as decrease in cell viability at 1 to 10 uM after 48 hrs by propidium iodide incorporation assay. The class given is cell-based. The conditions noted are these: astrocyte.
Data set [11] can be described thus: Cytotoxicity against mouse astrocytes assessed as decrease in cell viability at 0.1 uM after 48 hrs by neutral red incorporation assay. The class given is cell-based. The conditions noted are these: astrocyte.
A short description of data set [12]: Cytotoxicity against mouse astrocytes assessed as decrease in cell viability at 0.1 uM after 48 hrs by propidium iodide incorporation assay. It is filed as cell-based. The conditions noted are these: astrocyte.
A short description of data set [13]: Cytotoxicity against mouse astrocytes assessed as decrease in cell viability at 0.1 uM after 48 hrs by Hoechst 33342 staining. The class given is cell-based. The conditions noted are these: astrocyte.

Consider `Cn1nnc2c(C(N)=O)ncn2c1=O` [TEMOZOLOMIDE], for which the “growth inhibition (GI)” value in the data set with SF-295 and with SNB-75 was “Active” each time. In the data set on C6 [1], the result was Active. The Activity result in data set [2], in data set [3] and in [4] was “Non-toxic” in each case.
Regarding `CC(=O)O[C@H]1C(=O)[C@@]2(C)[C@H]([C@H](OC(=O)c3ccccc3)[C@]3(O)C[C@H](OC(=O)[C@H](O)[C@@H](NC(=O)c4ccccc4)c4ccccc4)C(C)=C1C3(C)C)[C@]1(OC(C)=O)CO[C@@H]1C[C@@H]2O` [PACLITAXEL], the “growth inhibition (GI)” value with SF-295 and in the data set on SNB-75 was “Active” each time. For the same compound, the outcome with C6 [5] was Active. Moreover, the Activity is listed as 28% in data set [6], “Dose-dependent effect” in [7] and “Dose-dependent effect” in data set [8].
With `CC[C@]1(O)C[C@H]2CN(CCc3c([nH]c4ccccc34)[C@@](C(=O)OC)(c3cc4c(cc3OC)N(C=O)[C@H]3[C@@](O)(C(=O)OC)[C@H](OC(C)=O)[C@]5(CC)C=CCN6CC[C@]43[C@@H]65)C2)C1` [VINCRISTINE], in the data set with C6 [5], the outcome was Active. The Activity is on record as 60% in data set [9]; “Toxic” in data set [10]; “Toxic” in data set [11]; “Toxic” in data set [12]; “Toxic” in [13].
